Source: ChEMBL document CHEMBL5120798, “Design and synthesis of an N-benzyl 5-(4-sulfamoylbenzylidene-2-thioxothiazolidin-4-one scaffold as a novel NLRP3 inflammasome inhibitor” (Bioorg Med Chem Lett, 2022)
Activity calls are given as the source filed them. The calls are words filed in the database; no cut-off is given here.

What was measured:
Type in all cases: cell-based
[1] = biological target: NACHT, LRR and PYD domains-containing protein 3 (Mus musculus) (UniProt Q8R4B8); assay: Inhibition of NLRP3 inflammasome assembly in LPS/nigericin stimulated mouse BMDM cells assessed as reduction in NLRP3 specks; conditions: concentration not given here
Sequence of NACHT, LRR and PYD domains-containing protein 3 (Mus musculus) (Q8R4B8 whole entry, the tested form may be a part): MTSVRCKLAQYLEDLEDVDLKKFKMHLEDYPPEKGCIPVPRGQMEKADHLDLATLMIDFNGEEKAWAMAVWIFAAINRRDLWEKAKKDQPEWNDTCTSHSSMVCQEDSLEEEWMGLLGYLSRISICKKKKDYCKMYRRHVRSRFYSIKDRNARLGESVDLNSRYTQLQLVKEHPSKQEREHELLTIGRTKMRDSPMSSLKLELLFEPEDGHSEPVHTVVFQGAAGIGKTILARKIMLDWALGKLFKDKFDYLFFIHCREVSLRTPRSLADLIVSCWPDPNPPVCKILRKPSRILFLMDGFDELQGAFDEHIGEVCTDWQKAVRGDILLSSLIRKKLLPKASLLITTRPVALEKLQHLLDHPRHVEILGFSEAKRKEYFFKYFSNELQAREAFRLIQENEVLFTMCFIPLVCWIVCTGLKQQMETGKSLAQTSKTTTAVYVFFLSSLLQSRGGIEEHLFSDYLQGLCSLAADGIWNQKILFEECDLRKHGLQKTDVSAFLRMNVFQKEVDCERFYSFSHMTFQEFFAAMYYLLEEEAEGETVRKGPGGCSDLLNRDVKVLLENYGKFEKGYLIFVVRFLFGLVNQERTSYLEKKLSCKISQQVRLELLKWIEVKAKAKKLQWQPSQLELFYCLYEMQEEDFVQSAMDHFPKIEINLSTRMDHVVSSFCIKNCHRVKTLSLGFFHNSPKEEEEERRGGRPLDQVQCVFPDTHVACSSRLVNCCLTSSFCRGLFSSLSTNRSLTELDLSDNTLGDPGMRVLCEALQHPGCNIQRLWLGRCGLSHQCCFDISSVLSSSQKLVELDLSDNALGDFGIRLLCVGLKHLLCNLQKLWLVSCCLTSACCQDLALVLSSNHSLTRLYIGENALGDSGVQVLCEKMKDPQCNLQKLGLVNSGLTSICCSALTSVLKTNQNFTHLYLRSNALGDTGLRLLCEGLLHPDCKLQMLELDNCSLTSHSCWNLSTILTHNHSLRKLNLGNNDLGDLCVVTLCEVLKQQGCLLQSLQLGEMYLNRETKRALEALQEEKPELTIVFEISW

[2] = biological target: NACHT, LRR and PYD domains-containing protein 3 (Mus musculus) (UniProt Q8R4B8); assay: Inhibition of NLRP3 inflammasome activation in LPS-primed mouse BMDM cells assessed as reduction in LPS/ATP induced cleaved caspase 1 level in supernatant preincubated for 30 mins followed by LPS addition for 3 hrs prior to ATP addition for 30 mins by Western blot analysis; conditions: dose 4-10 µM, time 4.0 hrs, DDE = dose-dependent effect
[3] = biological target: NACHT, LRR and PYD domains-containing protein 3 (Homo sapiens) (UniProt Q96P20); assay: Inhibition of NLRP3 inflammasome assembly in human THP-1 cells assessed as reduction in ASC oligomers formation
Sequence of NACHT, LRR and PYD domains-containing protein 3 (Homo sapiens) (Q96P20 whole entry, the tested form may be a part): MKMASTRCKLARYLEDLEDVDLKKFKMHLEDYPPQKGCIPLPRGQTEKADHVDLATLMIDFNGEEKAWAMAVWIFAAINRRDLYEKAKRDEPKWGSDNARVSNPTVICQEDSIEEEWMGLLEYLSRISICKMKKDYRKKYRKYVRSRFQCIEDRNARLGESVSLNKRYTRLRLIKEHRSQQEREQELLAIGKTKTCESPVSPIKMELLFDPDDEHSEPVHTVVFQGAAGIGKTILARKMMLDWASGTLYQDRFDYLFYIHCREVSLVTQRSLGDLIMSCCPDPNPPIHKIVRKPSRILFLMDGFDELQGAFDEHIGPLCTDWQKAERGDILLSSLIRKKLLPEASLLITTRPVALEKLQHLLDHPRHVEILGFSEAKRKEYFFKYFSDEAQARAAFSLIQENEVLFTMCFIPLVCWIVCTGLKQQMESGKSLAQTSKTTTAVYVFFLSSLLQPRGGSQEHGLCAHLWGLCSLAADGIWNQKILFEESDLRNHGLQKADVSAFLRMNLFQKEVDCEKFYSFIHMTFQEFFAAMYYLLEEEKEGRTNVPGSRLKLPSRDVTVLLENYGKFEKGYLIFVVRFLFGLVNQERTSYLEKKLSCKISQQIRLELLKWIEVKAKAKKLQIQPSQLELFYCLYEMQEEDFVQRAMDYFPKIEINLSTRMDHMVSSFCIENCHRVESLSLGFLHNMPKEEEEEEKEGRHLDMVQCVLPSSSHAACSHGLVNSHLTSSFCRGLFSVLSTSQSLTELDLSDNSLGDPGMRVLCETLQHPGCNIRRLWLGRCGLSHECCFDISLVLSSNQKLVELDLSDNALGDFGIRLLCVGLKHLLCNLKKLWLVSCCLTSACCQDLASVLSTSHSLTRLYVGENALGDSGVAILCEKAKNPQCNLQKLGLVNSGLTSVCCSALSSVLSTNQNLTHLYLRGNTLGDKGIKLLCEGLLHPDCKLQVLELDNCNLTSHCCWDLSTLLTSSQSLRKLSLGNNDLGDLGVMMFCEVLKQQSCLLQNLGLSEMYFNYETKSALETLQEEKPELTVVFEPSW

[4] = biological target: NACHT, LRR and PYD domains-containing protein 3 (Mus musculus) (UniProt Q8R4B8); assay: Inhibition of NLRP3 inflammasome activation in LPS-primed mouse BMDM cells assessed as reduction in LPS/ATP induced cleaved IL-1beta release in supernatant preincubated for 30 mins followed by LPS addition for 3 hrs prior to ATP addition for 30 mins by Western blot analysis; conditions: dose 4-10 µM, time 4.0 hrs, DDE = dose-dependent effect
[5] = biological target: NACHT, LRR and PYD domains-containing protein 3 (Mus musculus) (UniProt Q8R4B8); assay: Inhibition of NLRP3 inflammasome activation in LPS-primed mouse BMDM cells assessed as reduction in LPS/ATP induced cleaved IL-1beta release in supernatant at 2 uM preincubated for 30 mins followed by LPS addition for 3 hrs prior to ATP addition for 30 mins by Western blot analysis; conditions: time 4.0 hrs

Row | Compound | inhibition [1] [%] | inhibition [2] | inhibition [3] | inhibition [4] | inhibition [5]
1 | COc1ccc(Cl)c(CN2C(=O)/C(=C/c3ccc(S(N)(=O)=O)cc3)SC2=S)c1 | 60 | Dde | Active | Dde | 
2 | COc1ccccc1CN1C(=O)/C(=C/c2ccc(S(N)(=O)=O)cc2)SC1=S |  |  |  |  | Active
3 | COc1ccc(Cl)cc1CN1C(=O)/C(=C/c2ccc(S(N)(=O)=O)cc2)SC1=S | 60 | Dde | Active | Dde | 
4 | CCCCOc1ccc(Cl)cc1CN1C(=O)/C(=C/c2ccc(S(N)(=O)=O)cc2)SC1=S |  |  |  |  | Active
5 | NS(=O)(=O)c1ccc(/C=C2\SC(=S)N(Cc3cccc(Cl)c3)C2=O)cc1 |  |  |  |  | Active
